Broadly, the IC50 is the concentration at which inhibition is half-maximal. A higher IC50 goes with lower potency.

Structures can show the parent of a compound that is named as a salt.

The target of one experiment is Tpl2 (Homo sapiens, UniProt P41279). The note with it: background statement; cited from earlier work.
Another experiment concerns the target T1, human Cot/Tpl2 kinase (Homo sapiens, UniProt P41279).
T1 construct: human Cot/Tpl2 kinase construct encoding residues 30-398; 6His (N); made in house; host or cells: Sf9 insect cells (baculovirus system, BD Biosciences)
Nature of the experiment: Tpl2/Cot kinase assay, GST-MEK1 phosphorylation detected by ELISA (DELFIA Eu). Type of experiment: biochemical. On the technique in general: ELISA stands for enzyme-linked immunosorbent assay.

Where [1] appears, read: Table 1, 0.4 nM Tpl2, 35 nM GST-MEK1, 50 uM ATP, 1 h at 30° C.
Setting [2] is: Table 2, additional representative compounds.

T1 sequence (P41279 30-398): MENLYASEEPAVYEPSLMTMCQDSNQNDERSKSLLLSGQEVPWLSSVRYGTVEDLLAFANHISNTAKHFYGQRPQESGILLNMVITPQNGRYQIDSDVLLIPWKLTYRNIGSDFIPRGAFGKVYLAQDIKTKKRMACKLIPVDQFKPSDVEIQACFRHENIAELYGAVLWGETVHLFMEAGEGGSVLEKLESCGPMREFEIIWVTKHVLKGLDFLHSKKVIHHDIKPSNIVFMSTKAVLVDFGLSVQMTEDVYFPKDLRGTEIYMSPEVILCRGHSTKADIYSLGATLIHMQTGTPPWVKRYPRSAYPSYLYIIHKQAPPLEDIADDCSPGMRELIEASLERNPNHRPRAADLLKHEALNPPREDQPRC
Tpl2, sequence (P41279 whole entry): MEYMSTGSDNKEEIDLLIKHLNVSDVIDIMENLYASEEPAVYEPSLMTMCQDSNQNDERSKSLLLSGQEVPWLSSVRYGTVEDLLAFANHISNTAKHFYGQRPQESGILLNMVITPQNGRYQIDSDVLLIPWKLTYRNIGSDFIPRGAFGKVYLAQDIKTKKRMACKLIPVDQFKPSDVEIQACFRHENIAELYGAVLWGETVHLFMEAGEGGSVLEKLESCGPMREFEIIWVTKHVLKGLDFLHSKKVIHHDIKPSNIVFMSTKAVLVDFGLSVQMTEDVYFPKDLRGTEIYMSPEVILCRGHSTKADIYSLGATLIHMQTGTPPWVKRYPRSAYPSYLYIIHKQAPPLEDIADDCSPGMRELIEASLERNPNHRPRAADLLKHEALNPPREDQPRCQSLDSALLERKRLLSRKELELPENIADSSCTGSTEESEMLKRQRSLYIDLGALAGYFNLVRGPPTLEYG

Regarding `CN[C@@H]1C[C@H]2O[C@@](C)([C@@H]1OC)n1c3ccccc3c3c4c(c5c6ccccc6n2c5c31)C(=O)NC4` [staurosporine], the “inhibition of Tpl2” value on Tpl2 is reported as “not inhibited”.

Compound `N#Cc1cnc2cnc(NCc3c(N)cccc3F)cc2c1Nc1ccc(F)c(Cl)c1` [Example 61, 6-[(2-amino-6-fluorobenzyl)amino]-4-[(3-chloro-4-fluorophenyl)amino]-1,7-naphthyridine-3-carbonitrile] had an IC50 at human Cot/Tpl2 kinase (setting [1]) of 10.5 µM.

Consider `N#Cc1cnc2cnc(NCc3cccnc3)cc2c1Nc1cccc(Oc2ccccc2)c1` [Example 15, 4-(3-phenoxyphenylamino)-6-(pyridin-3-ylmethylamino)-1,7-naphthyridine-3-carbonitrile], for which, on human Cot/Tpl2 kinase (setting [1]), the IC50 is > 40 µM.

`N#Cc1cnc2cnc(N[C@@H]3CCCc4ccccc43)cc2c1Nc1ccc(F)c(Cl)c1` [Example 70] displayed an IC50 against human Cot/Tpl2 kinase (setting [1]) of 1.5 µM.

For the compound `N#Cc1cnc2cnc(NCCc3ccc(S(N)(=O)=O)cc3)cc2c1Nc1ccc(F)c(Cl)c1` [Example 120, 4-(2-(4-(3-chloro-4-fluorophenylamino)-3-cyano-1,7-naphthyridin-6-ylamino)ethyl)benzenesulfonamide], half-maximal inhibition at human Cot/Tpl2 kinase (setting [2]) (IC50) was put at 0.23 µM.

As to `N#Cc1cnc2cnc(NCc3cccnc3)cc2c1Nc1ccc(OC(F)(F)F)cc1` [Example 33, 6-(pyridin-3-ylmethylamino)-4-(4-(trifluoromethoxy)phenylamino)-1,7-naphthyridine-3-carbonitrile], the IC50 at human Cot/Tpl2 kinase (setting [1]) was > 40 µM.

For the compound `COC(=O)c1cccc(Nc2c(C#N)cnc3cnc(NCCN4CCOCC4)cc23)c1` [Example 83, Methyl 3-(3-cyano-6-(2-morpholinoethylamino)-1,7-naphthyridin-4-ylamino)benzoate], the IC50 against human Cot/Tpl2 kinase (setting [1]) is > 10 µM.

In turn, `N#Cc1cnc2cnc(Nc3ccc(F)c(Cl)c3)cc2c1NC1CCCC1` [Example 92, 6-(3-chloro-4-fluorophenylamino)-4-(cyclopentylamino)-1,7-naphthyridine-3-carbonitrile] yielded an IC50 on human Cot/Tpl2 kinase (setting [1]) of 8 µM.

On human Cot/Tpl2 kinase (setting [2]), `COc1ccccc1CNc1cc2c(Nc3ccc(F)c(Cl)c3)c(C#N)cnc2cn1` [Example 124, 4-[(3-chloro-4-fluorophenyl)amino]-6-[(2-methoxybenzyl)amino]-1,7-naphthyridine-3-carbonitrile] had an IC50 of 0.37 µM.

`CN(c1c(C#N)cnc2cnc(F)cc12)C1CCCCCC1` [Example 136, 4-[cycloheptyl(methyl)amino]-6-fluoro-1,7-naphthyridine-3-carbonitrile] registered an IC50 on human Cot/Tpl2 kinase (setting [2]) of 0.36 µM.

On human Cot/Tpl2 kinase (setting [1]), `N#Cc1cnc2cnc(N[C@H]3CCc4ccccc43)cc2c1Nc1ccc(F)c(Cl)c1` [Example 72] gave an IC50 of 1.5 µM. In other words, the single-digit micromolar range.

Regarding `CC#Cc1cccc(Nc2c(C#N)cnc3cnc(NCCN4CCOCC4)cc23)c1` [Example 79, 6-(2-morpholinoethylamino)-4-(3-(prop-1-ynyl)phenylamino)-1,7-naphthyridine-3-carbonitrile], the IC50 at human Cot/Tpl2 kinase (setting [1]) is > 10 µM.

Regarding `CC(C)c1cccc(Nc2c(C#N)cnc3cnc(OCCN4CCOCC4)cc23)c1` [Example 36, 4-[(3-isopropylphenyl)amino]-6-(2-morpholin-4-ylethoxy)-1,7-naphthyridine-3-carbonitrile], on human Cot/Tpl2 kinase (setting [1]), the IC50 was > 40 µM.

In turn, `N#Cc1cnc2cnc(Nc3c[nH]cn3)cc2c1Nc1ccc(F)c(Cl)c1` [Example 140, 4-[(3-chloro-4-fluorophenyl)amino]-6-{[4(5)imidazolyl]amino}-1,7-naphthyridine-3-carbonitrile] returned an IC50 against human Cot/Tpl2 kinase (setting [2]) of 0.079 µM.

For the compound `N#Cc1cnc2cnc(NCc3cccnc3)cc2c1Nc1ccccc1` [Example 95, 4-Phenylamino-6-[(pyridin-3-ylmethyl)-amino]-[1,7]naphthyridine-3-carbonitrile], it took 0.33 µM to reach half-maximal inhibition against human Cot/Tpl2 kinase (setting [1]) (IC50).

`N#Cc1cnc2cnc(NCCN3CCOCC3)cc2c1Nc1ccc2[nH]ccc2c1` [Example 44, 4-(1H-indol-5-ylamino)-6-[(2-morpholin-4-ylethyl)amino]-1,7-naphthyridine-3-carbonitrile]: the IC50 against human Cot/Tpl2 kinase (setting [1]) was > 40 µM.

The compound `N#Cc1cnc2cnc(NCc3cccnc3)cc2c1Nc1ccc(F)cc1` [Example 9, 4-(4-fluorophenylamino)-6-(pyridin-3-ylmethylamino)-1,7-naphthyridine-3-carbonitrile] had an IC50 at human Cot/Tpl2 kinase (setting [1]) of 1.7 µM.

Compound `N#Cc1cnc2cnc(NCCN3CCNCC3)cc2c1Nc1ccc(Cc2ccccc2)cc1` [Example 25, 4-(4-benzylphenylamino)-6-(2-(piperazin-1-yl)ethylamino)-1,7-naphthyridine-3-carbonitrile, hydrochloride salt] showed an IC50 against human Cot/Tpl2 kinase (setting [1]) of 0.038 µM.

For the compound `CS(=O)(=O)Nc1cccc(Nc2c(C#N)cnc3cnc(NCCN4CCOCC4)cc23)c1` [Example 85, N-(3-(3-cyano-6-(2-morpholinoethylamino)-1,7-naphthyridin-4-ylamino)phenyl)methanesulfonamide], the IC50 against human Cot/Tpl2 kinase (setting [1]) is > 10 µM.

Compound `N#Cc1cnc2cnc(NCCN3CCOCC3)cc2c1Nc1ccc(Nc2ccccc2)cc1` [Example 10, 6-(2-morpholinoethylamino)-4-(4-(phenylamino)phenylamino)-1,7-naphthyridine-3-carbonitrile] yielded an IC50 against human Cot/Tpl2 kinase (setting [1]) of 7.6 µM.

On human Cot/Tpl2 kinase (setting [1]), `C[C@@H](Nc1cc2c(Nc3ccc(F)c(Cl)c3)c(C#N)cnc2cn1)c1ccccc1` [Example 59, 4-[(3-chloro-4-fluorophenyl)amino]-6-{[(1R)-1-phenylethyl]amino}-1,7-naphthyridine-3-carbonitrile] had an IC50 of 0.012 µM.

`N#Cc1cnc2cnc(NCc3cccnc3)cc2c1Nc1cccc(OC(F)(F)F)c1` [Example 32, 6-(pyridin-3-ylmethylamino)-4-(3-(trifluoromethoxy)phenylamino)-1,7-naphthyridine-3-carbonitrile]: the IC50 at human Cot/Tpl2 kinase (setting [1]) was > 40 µM.

The compound `C[C@H](Nc1cc2c(Nc3ccc(F)c(Cl)c3)c(C#N)cnc2cn1)c1ccccc1` [Example 57, 4-[(3-chloro-4-fluorophenyl)amino]-6-{[(1S)-1-phenylethyl]amino}-1,7-naphthyridine-3-carbonitrile] showed an IC50 at human Cot/Tpl2 kinase (setting [1]) of 36 µM.

Take `N#Cc1cnc2cnc(F)cc2c1Nc1ccc(C(F)(F)F)cc1` [Example 100, 6-fluoro-4-{[4-(trifluoromethyl)phenyl]amino}-1,7-naphthyridine-3-carbonitrile]: at human Cot/Tpl2 kinase (setting [2]), the IC50 is > 40 µM.

On human Cot/Tpl2 kinase (setting [1]), `C[C@H](O)CNc1cc2c(Nc3ccc(F)c(Cl)c3)c(C#N)cnc2cn1` [Example 56, 4-[(3-chloro-4-fluorophenyl)amino]-6-{[(2S)-2-hydroxypropyl]amino}-1,7-naphthyridine-3-carbonitrile] displayed an IC50 of 3.6 µM.

`N#Cc1cnc2cnc(NCCCN3CCOCC3)cc2c1Nc1ccc(F)c(Cl)c1` [Example 49, 4-[(3-chloro-4-fluorophenyl)amino]-6-[(3-morpholin-4-ylpropyl)amino]-1,7-naphthyridine-3-carbonitrile] displayed an IC50 on human Cot/Tpl2 kinase (setting [1]) of 3 µM.

`N#Cc1cnc2cnc(NCCN3CCOCC3)cc2c1Nc1ccc(F)cc1` [Example 4, 4-(4-fluorophenylamino)-6-(2-morpholinoethylamino)-1,7-naphthryidine-3-carbonitrile] came in with an IC50 against human Cot/Tpl2 kinase (setting [1]) of 10.7 µM.

With `CCC(C)(C)Nc1cc2c(Nc3ccc(F)c(Cl)c3)c(C#N)cnc2cn1` [Example 91, 4-(3-chloro-4-fluorophenylamino)-6-(tert-pentylamino)-1,7-naphthyridine-3-carbonitrile], the IC50 against human Cot/Tpl2 kinase (setting [1]) was > 40 µM.

For the compound `COc1ccc(CNc2cc3c(Nc4ccc(F)c(Cl)c4)c(C#N)cnc3cn2)cc1` [Example 96, 4-[(3-chloro-4-fluorophenyl)amino]-6-[(4-methoxybenzyl)amino]-1,7-naphthyridine-3-carbonitrile], the IC50 against human Cot/Tpl2 kinase (setting [2]) amounted to 0.2 µM.

Source of the values: US20060276498A1 (Wyeth, priority 2005, published 2006).
